The source of these data is patent publication EP3231799A1, “4-(AZETIDIN-1-YL)PYRIMIDINE DERIVATIVES WITH ANTI-MITOTIC AND ANTI-PROLIFERATIVE ACTIVITY” (Universität Basel, priority 2016, dated 2017).

Like-named read-outs stand apart in the source and are kept apart here.

This assay has as its system A2058 melanoma cells. Nature of the assay: Mitotic arrest (microtubule binding) in A2058 melanoma cells, high-content microscopy. The format is cell-based. The note with it: Homo sapiens, inhibitors 1 - 0.008 µM for 24 hours, mean value of at least four experiments. The protocol: Microtubule binding of compounds of formula (I) was determined in A2058 melanoma cells measuring mitotic arrest in high-throughput, high-content microscopic approaches. Microtubule networks or their depolymerization were visualized in parallel. Cellular tests are beneficial to address the biological question of tubulin binding, but also indirectly measure the uptake of a compound by cells. A hallmark of microtubule modifying agents (stabilizing or de-stabilizing) is a mitotic arrest cell cycle arrest of dividing cells, which was measured using the following protocol: • Cell preparation: 5000 A2058 cells were seeded in 100 µl complete DMEM into 96-well plates (Cell Carrier, Perkin Elmer) the day before inhibitor treatment. Cells were exposed to inhibitors (ranging from 1 - 0.008 µM) for 24 hours and fixed by addition of half a volume 10% PFA in PBS (30 min., RT). Cells were permeabilized and stained with Hoechst33324 by addition of 1:10 volume of 1%BSA/1% Triton X-100, 10 µM Hoechst33324 in PBS (30 min., RT), followed by a first image acquisition. Subsequently cells were additionally stained with rabbit anti pSer^10 Histone H3 (Cell Signaling Technologies) and rat anti-α-tubulin (Santa Cruz Technologies, overnight, 4 °C, shaking). Cells were washed and incubated with Alexa 488 conjugated goat anti rat IgG, Alexa 647 conjugated goat anti rabbit IgG antibodies (Life Technologies) and 1 µM Hoechst33324 in 1% BSA/0.1% Triton X-100/1x PBS (shaking; RT; dark), followed by 3 wash cycles and a 2nd round of imaging. • Image acquisition: Fluorescent microscopy images were acquired on an Operetta high content analysis system (Perkin Elmer). 35 fields of view/well were acquired as wide field images (20xWD objective). 1st acquisition: Nuclear DNA content and DNA morphology was imaged using the DAPI filter set. 2nd acquisition: Nuclear DNA, phosphorylated Histone H3 and α-tubulin images were acquired using DAPI, Alexa488 and Alexa647 filter sets. • Image analysis: Images were batch analysed using Columbus software (PerkinElmer). Analyses were run including single cell analysis mode. The total number of nuclei was determined in the DAPI channel. Nuclear DNA was classified into "normal" or "condensed" using a linear classifier mode. The percentage of cells with condensed DNA was calculated for each well (% condensed = (# condensed/ # total) *100). The fraction of cells with pSer10 Histone H3 positive nuclei was determined using Hoechst33342 and Alexa647 signals. 1st the nuclei were identified using DNA staining (Hoechst33342; excluding nuclei at image borders). 2nd the identified nuclei were classified positive or negative for pSer10 Histone H3 by two filters using the "filter by properties" mode based on Alexa 647 intensities. Alexa 647 filter properties were i) mean intensities above threshold /nucleus and ii) a maximum intensity above threshold. Calculation: % Alexa 647^positive = (# Alexa 647^positive / # selected nuclei) *100.
The percentage of cells with condensed DNA and the percentage of pSer10 Histone H3 positive nuclei were blotted as function of inhibitor concentration (log scale) using GraphPad Prism. Half maximal effective concentrations (EC50) of inhibitors were determined using GraphPad's "non-linear regression with variable slope" formula (Y=Bottom + (Top-Bottom)/(1+10^((LogEC50-X)*HillSlope))). Table 1: Effect of selected formula (I) compounds on mitotic arrest in A2058 cells. Half-maximal effective concentrations are given as mean value of at least four experiments for the indicated cellular phenotypes.

The mark [1] stands for this setting: percentage of cells with condensed DNA, read-out: Half-maximal effective concentrations (EC50), Condensed DNA.
[2] abbreviates: percentage of pSer10 Histone H3 positive nuclei, read-out: Half-maximal effective concentrations (EC50), pSer10 Histone H3.

In the case of `C[C@@H]1COCCN1c1nc(-c2cnc(N)cc2C(F)(F)F)cc(N2CC(F)(F)C2)n1` [Compound 16, (R)-5-(6-(3,3-difluoroazetidin-1-yl)-2-(3-methylmorpholino)pyrimidin-4-yl)-4-(trifluoromethyl)pyridin-2-amine], the EC50 was 111 nM under setting [1] and 115 nM under setting [2].

Consider `Nc1cc(C(F)(F)F)c(-c2cc(N3CC(F)(F)C3)nc(N3CCC(=O)CC3)n2)cn1` [Compound 76, 1-(4-(6-amino-4-(trifluoromethyl)pyridin-3-yl)-6-(3,3-difluoroazetidin-1-yl)pyrimidin-2-yl)piperidin-4-one], for which the EC50 is, setting by setting: under setting [1], 129 nM; under setting [2], 127 nM.

As to `Nc1cc(C(F)(F)F)c(-c2cc(N3CCC3)nc(N3CCOCC3)n2)cn1` [Compound 1, 5-(6-(azetidin-1-yl)-2-morpholinopyrimidin-4-yl)-4-(trifluoromethyl)pyridin-2-amine], the EC50 is, setting by setting: under setting [1], 79 nM; under setting [2], 80 nM.

`Nc1cc(C(F)(F)F)c(-c2cc(N3CC(F)(F)C3)nc(N3CCOCC3)n2)cn1` [Compound 4, 5-(6-(3,3-difluoroazetidin-1-yl)-2-morpholinopyrimidin-4-yl)-4-(trifluoromethyl)pyridin-2-amine]: the EC50 by setting is: under setting [1], 65 nM; under setting [2], 79 nM.

For the compound `Nc1cc(C(F)(F)F)c(-c2cc(N3CC(F)(F)C3)nc(N3CCC(O)CC3)n2)cn1` [Compound 40, 1-(4-(6-amino-4-(trifluoromethyl)pyridin-3-yl)-6-(3,3-difluoroazetidin-1-yl)pyrimidin-2-yl)piperidin-4-ol], the EC50 by setting is: under setting [1], 128 nM; under setting [2], 135 nM.

`CC1CN(c2cc(-c3cnc(N)cc3C(F)(F)F)nc(N3CCOCC3)n2)C1` [Compound 3, 5-(6-(3-methylazetidin-1-yl)-2-morpholinopyrimidin-4-yl)-4-(trifluoromethyl)pyridin-2-amine]: the EC50 under setting [1] turned out to be 92 nM.

For the compound `Nc1ncc(-c2cc(N3CC(F)(F)C3)nc(N3CCOCC3)n2)c(C(F)(F)F)n1` [Compound 8, 6-(3,3-difluoroazetidin-1-yl)-2-morpholino-4'-(trifluoromethyl)-[4,5'-bipyrimidin]-2'-amine], the EC50 is, setting by setting: under setting [1], 70 nM; under setting [2], 73 nM.

Turning to `Nc1cc(C(F)(F)F)c(-c2cc(N3CC(F)C3)nc(N3CCOCC3)n2)cn1` [Compound 2, 5-(6-(3-fluoroazetidin-1-yl)-2-morpholinopyrimidin-4-yl)-4-(trifluoromethyl)pyridin-2-amine], the EC50 reads like this: under setting [1], 71 nM; under setting [2], 151 nM.
